Patent US12241888B2, “Platform for assessment of the transcytosis of extracellular vesicles across endothelial barriers and uses thereof” (Children's Medical Center Corporation, priority 2018, dated 2025)

Tested on: brain EC monolayer
Experiment: Transcytosis assay with chemical-inhibition of endocytosis
Format: cell-based, Human
Conditions: endothelial cells pretreated with increasing doses of endocytosis inhibitor
Procedure: The model was optimized for this novel application. […] The cells become confluent in 48-72 hours. […] A-2) Transcytosis assay with chemical-inhibition of endocytosis: Transcytosis occurs following the uptake of macromolecules or EVs via endocytosis. […] A variety of chemicals that target different steps of endocytosis (e.g. Dynasore, filipin, etc.) can be used to pretreat the endothelial cells in the transwell® model to inhibit endocytosis prior to the transcytosis assay. […] It is worth to note that the endocytosis of EVs depends on the interaction of EV surface proteins with endothelial cell receptors, which depending on the EV proteins involved can go through different routes of endocytosis (clathrin-dependent, clathrin-independent, etc.).

## O=C(N/N=C/c1ccc(O)c(O)c1)c1cc2ccccc2cc1O [Dynasore]
  fluorescence intensity in the lower chamber (EV transcytosis signal): decreased with increasing doses
